Experimental data reported in publication PMC8893300, “A Dynamic Mass Redistribution Assay for the Human Sweet Taste Receptor Uncovers G-Protein Dependent Biased Ligands” (Frontiers in Pharmacology, 2022).
pEC50: −log10 of the molar value. Like-named read-outs stand apart in the source and are kept apart here. Marks after values point to notes of the source that are not given here. Residues, ends and D or L forms follow the SMILES beside them.

Assays:
[1] = molecular target: T1, human sweet taste receptor (hT1R2/hT1R3) (Homo sapiens, UniProt Q7RTX0+Q8TE23); assay: DMR assay (Epic reader) on R2/R3 U2OS cells, endogenous G proteins; format: cell-based; conditions: for pEC50 / EC50: R2/R3 U2OS cells, peak DMR response; for pEC50: read-out: Activity in DMR assay EC50; for EC50: read-out: Activity in DMR assay pEC50 (converted); for ΔlogR DMR Mean: Table 2, operational model, logR minus sucralose logR; for Activity in DMR assay Emax: top asymptote of dose-response normalized to 1 mM sucralose
T1 construct: expressed in transfected cells
T1 sequence (Q8TE23 20-839): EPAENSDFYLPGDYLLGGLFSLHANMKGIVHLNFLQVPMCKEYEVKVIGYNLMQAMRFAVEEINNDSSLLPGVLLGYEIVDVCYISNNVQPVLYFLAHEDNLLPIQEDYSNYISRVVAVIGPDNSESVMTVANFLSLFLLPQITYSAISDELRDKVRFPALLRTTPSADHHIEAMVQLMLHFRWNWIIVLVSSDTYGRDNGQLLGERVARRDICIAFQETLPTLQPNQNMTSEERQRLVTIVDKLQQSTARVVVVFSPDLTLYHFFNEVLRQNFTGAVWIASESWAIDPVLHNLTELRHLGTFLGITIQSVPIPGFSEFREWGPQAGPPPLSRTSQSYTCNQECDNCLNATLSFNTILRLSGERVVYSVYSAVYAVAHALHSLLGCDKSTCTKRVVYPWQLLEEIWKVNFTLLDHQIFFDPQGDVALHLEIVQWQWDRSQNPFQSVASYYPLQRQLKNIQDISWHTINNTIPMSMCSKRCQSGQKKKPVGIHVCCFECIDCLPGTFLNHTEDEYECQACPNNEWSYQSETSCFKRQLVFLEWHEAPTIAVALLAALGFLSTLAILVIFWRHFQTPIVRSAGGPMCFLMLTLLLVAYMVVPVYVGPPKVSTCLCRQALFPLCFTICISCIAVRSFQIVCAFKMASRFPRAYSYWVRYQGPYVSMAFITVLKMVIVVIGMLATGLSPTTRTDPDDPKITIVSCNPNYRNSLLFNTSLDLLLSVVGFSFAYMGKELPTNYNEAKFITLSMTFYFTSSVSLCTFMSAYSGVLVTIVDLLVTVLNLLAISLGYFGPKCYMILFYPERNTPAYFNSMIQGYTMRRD
T1 sequence (Q7RTX0 21-852): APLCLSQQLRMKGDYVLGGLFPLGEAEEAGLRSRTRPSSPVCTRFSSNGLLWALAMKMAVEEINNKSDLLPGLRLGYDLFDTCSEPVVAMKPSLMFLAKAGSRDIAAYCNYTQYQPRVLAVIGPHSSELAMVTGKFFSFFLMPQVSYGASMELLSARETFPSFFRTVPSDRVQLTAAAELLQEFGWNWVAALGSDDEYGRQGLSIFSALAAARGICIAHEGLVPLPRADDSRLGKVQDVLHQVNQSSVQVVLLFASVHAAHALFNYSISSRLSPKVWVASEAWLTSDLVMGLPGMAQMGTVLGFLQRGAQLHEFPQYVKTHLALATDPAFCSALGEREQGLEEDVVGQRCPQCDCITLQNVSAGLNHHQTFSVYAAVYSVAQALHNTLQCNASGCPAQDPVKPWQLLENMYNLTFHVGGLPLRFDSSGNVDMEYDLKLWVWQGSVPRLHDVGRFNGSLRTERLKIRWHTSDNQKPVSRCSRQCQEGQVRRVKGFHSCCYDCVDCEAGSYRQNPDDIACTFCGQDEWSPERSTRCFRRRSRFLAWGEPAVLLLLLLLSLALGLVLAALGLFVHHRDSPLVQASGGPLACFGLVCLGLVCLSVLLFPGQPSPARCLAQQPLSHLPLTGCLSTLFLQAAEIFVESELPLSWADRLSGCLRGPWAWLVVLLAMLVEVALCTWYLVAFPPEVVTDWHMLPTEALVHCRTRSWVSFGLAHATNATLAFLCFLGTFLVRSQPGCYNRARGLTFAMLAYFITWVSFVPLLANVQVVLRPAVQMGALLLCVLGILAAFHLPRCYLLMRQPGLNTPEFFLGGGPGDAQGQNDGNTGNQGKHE
Method: The plates were incubated in the tissue culture hood for 20 min to allow cells to settle evenly at the bottom of the microplate and further cultured at 37°C in an atmosphere of 5% CO2 for 18–24 h. The next day, the cells were subjected to functional analysis using DMR. […] When indicated, data for agonist dose-responses were normalized to data obtained with a maximum concentration of sucralose (1 mM) and then fitted and plotted using GraphPad Prism (San Diego, CA) and non-linear regression analysis.
(§1) This value, that we termed pEC50Ratio (sucralose) or pEC50R (sucralose), was calculated with EC50 values obtained in the two assay systems. This transformation also allowed determination of an average and a standard error for the pEC50R (sucralose). The two sets of data (DMR and FLIPR data) were then analyzed with an un-paired t-test (α = 0.05). To calculate relative efficacy bias between the two assays, we captured the top asymptote value from each activity-normalized dose-response curve, as provided by the curve fit, calculated an average and a standard deviation (sd) for each agonist and then analyzed the data pairs with an un-paired t-test (α = 0.05). […] The following steps were followed: 1) Using the PRISM software, we re-analyzed each ligand’s dose-response data obtained in each assay with non-linear regression and the users-defined equation “New Operational Model with TauKa ratios” and retrieved logR values from the fits. 2) Subtracted each ligand’s logR value with that of our standard, the sucralose logR value, obtained from the same data set (each ligand dose-response assay data used in this analysis was accompanied with a sucralose dose-response ran on the same day), producing the ΔlogR value for leach ligand in each assay. 3) Calculated the mean and SEM from ΔlogR replicates (from three to nine independent dose-response analysis, in the two different assays). 4) Calculated ΔΔlogR values by subtracting the averaged ligands’ ΔlogR FLIPR values with the averaged ligands’ ΔlogR DMR values.

[2] = molecular target: T2, human sweet taste receptor (hT1R2/hT1R3) coupled to Gα15 (Homo sapiens, UniProt Q7RTX0+Q8TE23); assay: FLIPR calcium mobilization assay, R2/R3 U2OS cells transduced with Gα15 baculovirus; format: cell-based; conditions: for ΔlogR FLIPR Mean: FLIPR-Gα15, operational model, logR minus sucralose logR; for Activity in FLIPR assay Emax: top asymptote of dose-response normalized to 1 mM sucralose; for Bias factor: inverse log of ΔΔlogR, FLIPR-Gα15 vs DMR; for ΔΔlogR Mean: ΔlogR FLIPR-Gα15 minus ΔlogR DMR; for EC50: read-out: Activity in FLIPR assay pEC50 (converted)
T2 construct: expressed in transfected cells
T2 sequence (Q8TE23 20-839): T1 sequence (Q8TE23 20-839)
T2 sequence (Q7RTX0 21-852): T1 sequence (Q7RTX0 21-852)
Method: The Gα15 coding sequence was inserted in the HindIII-NotI sites and recombinant virus was generated using the Bac-to-Bac system (Life Technologies). Virus was further amplified by propagation in Sf9 cells grown in suspension using Sf900-II media. Virus titers were determined by plaque assay on Sf9 cells.
Cells were gently mixed with the virus at a multiplicity of infection (MOI) of 5. Using a multidrop, 70 μl per well of the cell and virus mixture was dispensed in a 384-well clear bottom plate (Fisher). After 24 h of incubation in a humidified 37°C tissue culture incubator, trichostatin A was added to a final concentration of 0.3 μM and the cells were incubated for another 18–24 h at 34°C. On the day of the experiment, cells were loaded with 4 μM of the calcium indicator Fluo-4 AM (Invitrogen) in D-PBS for 1 h at room temperature. After washing the cells with D-PBS using a cell washer (BioTek) and a 30-minute rest time, the cell plate and the compound plate were transferred into the FLIPR-Tetra (Molecular Devices). […] Loading and the FLIPR assay were run as described above. When indicated, data for agonist dose-responses were normalized to data obtained with a maximum concentration of sucralose (1 mM) and then fitted and plotted using GraphPad Prism (San Diego, CA) and non-linear regression analysis.
as §1

[3] = Activity in FLIPR assay EC50, R2/R3 U2OS cells expressing Gα15
[4] = Activity in FLIPR assay pEC50, R2/R3 U2OS cells expressing Gα15
[5] = R2/R3 U2OS cells expressing Gα15, read-out: Activity in FLIPR assay EC50
[6] = R2/R3 U2OS cells expressing Gα15

C[C@@H](NC(=O)[C@@H](N)CC(=O)O)C(=O)NC1C(C)(C)SC1(C)C [Alitame]
pEC50 [1]: 4.43
EC50 [1]: 32.5 µM
ΔlogR DMR Mean [1]: 0.35
Activity in DMR assay Emax [1]: 106
pEC50 [2, 3]: 4.70
pEC50 [2, 4]: 4.71
ΔlogR FLIPR Mean [2]: 0.52
Activity in FLIPR assay Emax ([2]; Gα15): 100
Bias factor [2]: 1.5
ΔΔlogR Mean [2]: 0.18

COC(=O)[C@H](Cc1ccccc1)NC(=O)[C@@H](N)CC(=O)O [Aspartame] (H-Asp-Phe-OMe)
pEC50 [1]: 3.04
EC50 [1]: 771 µM
ΔlogR DMR Mean [1]: −0.72
Activity in DMR assay Emax [1]: 143
ΔlogR FLIPR Mean [2]: −0.74
Activity in FLIPR assay Emax ([2]; Gα15): 106
pEC50 [2, 5]: 3.45
EC50 [2, 6]: 352 µM
ΔΔlogR Mean [2]: −0.03

O=C(CO)[C@@H](O)[C@H](O)[C@H](O)CO [D-fructose]
response in the FLIPR assay, in words ([2]; R2/R3 U2OS cells transduced with Gα15): readily detected

CCOc1ccc(NC(N)=O)cc1 [Dulcin]
pEC50 [1]: 4.48
EC50 [1]: 30.7 µM
ΔlogR DMR Mean [1]: 0.20
Activity in DMR assay Emax [1]: 57****
ΔlogR FLIPR Mean [2]: 0.38
Activity in FLIPR assay Emax ([2]; Gα15): 87****
EC50 [2, 6]: 23.1 µM
ΔΔlogR Mean [2]: 0.18

CCCOc1ccc([N+](=O)[O-])cc1N [P-4000]
EC50 [1]: 3.78 µM
ΔlogR DMR Mean [1]: 1.31
Activity in DMR assay Emax [1]: 102
ΔlogR FLIPR Mean [2]: 1.67
Activity in FLIPR assay Emax ([2]; Gα15): 164****
pEC50 [2, 5]: 5.66
EC50 [2, 6]: 2.12 µM
ΔΔlogR Mean [2]: 0.36

Cc1cc(C)c2c(c1)[C@H](NC(=O)c1conc1C)CCC2 [S679]
pEC50 [1]: 5.89
EC50 [1]: 1.22 µM
ΔlogR DMR Mean [1]: 2.07
Activity in DMR assay Emax [1]: 133
ΔlogR FLIPR Mean [2]: 2.15
Activity in FLIPR assay Emax ([2]; Gα15): 159****
pEC50 [2, 5]: 6.15
EC50 [2, 6]: 0.716 µM
ΔΔlogR Mean [2]: 0.08

COCc1cncc(-c2ccc(C(C)(C)C(=O)NCC(C)C)cc2)n1 [S1313]
EC50 [1]: 1.51 µM
ΔlogR DMR Mean [1]: 1.91
Activity in DMR assay Emax [1]: 130
ΔlogR FLIPR Mean [2]: 2.14
Activity in FLIPR assay Emax ([2]; Gα15): 170****
pEC50 [2, 5]: 6.15
EC50 [2, 6]: 0.665 µM
ΔΔlogR Mean [2]: 0.22

C[C@H](NC(=Nc1ccc(C#N)cc1)NCC(=O)O)c1ccccc1 [SC-45647]
pEC50 [1]: 5.37
EC50 [1]: 4.09 µM
ΔlogR DMR Mean [1]: 1.38
Activity in DMR assay Emax [1]: 97**
ΔlogR FLIPR Mean [2]: 1.45
Activity in FLIPR assay Emax ([2]; Gα15): 98**
EC50 [2, 6]: 2.28 µM
ΔΔlogR Mean [2]: 0.07

Cc1sc2[nH]c(=O)nc(N)c2c1C [SE-2]
leftward shift in the sucralose dose-response in the DMR assay ([1]; 25 μM SE-2, mean ± sd, n = 3): 5.1 ± 1.5 fold
agonist activity on its own in the DMR assay, in words ([1]; 25 μM SE-2 at lower sucralose concentrations): did not produce any agonist activity on its own
enhancement factor of the sucralose dose-response in the FLIPR assay ([2]; 25 μM SE-2, Gα15, mean ± sd, n = 4): 7.3 ± 0.9 fold

O=C1NS(=O)(=O)c2ccccc21 [Saccharin]
ΔlogR DMR Mean [1]: −0.31
Activity in DMR assay Emax [1]: 145
ΔlogR FLIPR Mean [2]: −0.47
Activity in FLIPR assay Emax ([2]; Gα15): 90****
ΔΔlogR Mean [2]: −0.16

C=C1C[C@@]23CC[C@H]4[C@@](C)(CCC[C@@]4(C)C(=O)O[C@@H]4O[C@H](CO)[C@@H](O)[C@H](O)[C@H]4O)[C@@H]2CC[C@]1(O[C@@H]1O[C@H](CO)[C@@H](O)[C@H](O)[C@H]1O[C@@H]1O[C@H](CO)[C@@H](O)[C@H](O)[C@H]1O)C3 [Stevioside]
pEC50 [1]: 3.90
EC50 [1]: 114 µM
ΔlogR DMR Mean [1]: 0.09
Activity in DMR assay Emax [1]: 141
pEC50 [2, 3]: 4.29
pEC50 [2, 4]: 4.30
ΔlogR FLIPR Mean [2]: 0.13
Activity in FLIPR assay Emax ([2]; Gα15): 102
ΔΔlogR Mean [2]: 0.04

COC(=O)[C@H](Cc1ccccc1)NC(=O)[C@H](CC(=O)O)NC(=O)Nc1ccc(C#N)cc1 [Superaspartame]
pEC50 [1]: 5.01
EC50 [1]: 9.48 µM
ΔlogR DMR Mean [1]: 1.04
Activity in DMR assay Emax [1]: 109
ΔlogR FLIPR Mean [2]: 1.17
Activity in FLIPR assay Emax ([2]; Gα15): 105
pEC50 [2, 5]: 5.33
EC50 [2, 6]: 4.62 µM
ΔΔlogR Mean [2]: 0.13

CC1=CC(=O)NS(=O)(=O)O1 [acesulfame K]
pEC50 [1]: 2.91
EC50 [1]: 906 µM
ΔlogR DMR Mean [1]: −0.99
Activity in DMR assay Emax [1]: 122
ΔlogR FLIPR Mean [2]: −0.74
Activity in FLIPR assay Emax ([2]; Gα15): 73****
pEC50 [2, 5]: 3.60
EC50 [2, 6]: 251 µM
Bias factor [2]: 1.8
